According to patent publication US9255272B2, “Use of inhibitors of leukotriene B4 receptor BLT2 for treating asthma” (Korea University Research & Business Foundation, priority 2007, dated 2016):

Columns and labels:
[1] = test system: acute lung injury induced by endotoxin; settings: pigs, cited from earlier work
OVA-challenged mice = assay: Eosinophil infiltration in BAL fluid of OVA-challenged mice; assay type: in vivo, mouse; settings: C57BL/6 mice, 1.6 mg/kg i.v. 24 hr and 1 hr before 10% OVA challenge, 48 hr
Method: (§1) Female BALB/c mice and C57BL/6 mice (7 weeks old; 18-20 g) were obtained from Orientbion Inc. (Seoungnam, Korea). Sensitization and challenge were carried out as described previously with some modification (28). Briefly, female C57BL/6 mice (7 weeks old; 18-20 g) were immunized by intraperitoneal (i.p.) injection of 200 μg ovalbumin (OVA) emulsified in 2.5 mg of adjuvant aluminum hydroperoxide gel (alum) (Pierce, Rockford, Ill.). A second i.p. injection of 20 μg OVA adsorbed onto alum (2.5 mg) was administered 10 days later. After an additional 10 days, mice were exposed to an aerosol of 1% OVA in saline for 30 min daily on 3 consecutive days. On day 25, mice were finally challenged by provocation with 10% OVA aerosol. For inhibition experiments, sense or antisense BLT2 (1.6 mg/kg) was injected intravenously 24 h and then 1 h before the 10% OVA challenge. The mice were then killed on day 27 to assess asthmatic phenotypes. Antisense BLT2 oligonucleotide (5′-[…]-3′ (SEQ ID NO: 15)), sense BLT2 oligonucleotide (5′-[…]-3′ (SEQ ID NO: 16)).
Inflammatory cells in the BAL fluid were collected by centrifugation (1,000 g for 3 min) and washed once in PBS. Cells were counted using a hemocytometer, and viability was assessed by trypan blue exclusion. […]

ROS = ROS levels in BAL fluid cells (DCF fluorescence, FACS); assay type: in vivo, mouse; settings: 1.6 mg/kg i.v. 24 hr and 1 hr before 10% OVA; BAL fluid 48 h after challenge
Method: as §1
ROS levels in BAL fluids were measured as a function of DCF fluorescence as described previously (30). […] DCF fluorescence was excited at 488 nm and the evoked emission was filtered with a 515-nm long-pass filter. […]

Compound	activation of neutrophils ([1]; endotoxin)	acute lung injury induced by endotoxin [1]	reduction of eosinophil infiltration in BAL fluids (OVA-challenged mice) [%]	reduction of ROS levels in BAL fluid (ROS) [%]
CCc1cc(C(C)=O)c(O)cc1OCCCCCC(C)(C)c1nnn[nH]1 [LY255283, 1-[5-ethyl-2-hydroxy-4-[[6-methyl-6-(1H-tetrazol-5-yl)heptyl]oxy]phenyl]-ethanone, reference compound]	limits activation of neutrophils	prevents acute lung injury		
antisense BLT2: Antisense BLT2 oligonucleotide 5′-GCTCAGTAGTGTCTCATTCC-3′ (SEQ ID NO: 15) (listed as DNA, chemistry not fully specified)			~87	−70
